Results taken from ChEMBL document CHEMBL2069304, “Indole alkaloids from two cultured cyanobacteria, Westiellopsis sp. and Fischerella muscicola” (Bioorg Med Chem, 2012).
In brackets after ≈: the same amount, converted by molar mass. Activity calls are given as the source filed them. The calls are words filed in the database; no cut-off is given here.

How the values were obtained:
Candida albicans = assay: Antimicrobial activity against Candida albicans by broth microdilution assay; assay type: functional
[1] = system: Mycobacterium tuberculosis; assay: microbe, parasite or virus in culture; settings: H37Rv
Description: Antimicrobial activity against Mycobacterium tuberculosis H37Rv by microplate Alamar blue assay

MCF7 = assay: Cytotoxicity against human MCF7 cells incubated for 3 days by SRB assay; assay type: functional, cell-based; settings: MCF7, 72 h
NCI-H460 = assay: Cytotoxicity against human NCI-H460 cells incubated for 3 days by SRB assay; assay type: functional, cell-based; settings: NCI-H460, 72 h
SF-268 = assay: Cytotoxicity against human SF268 cells incubated for 3 days by SRB assay; assay type: functional, cell-based; settings: SF-268, 72 h
IMR-90 = assay: Cytotoxicity against human IMR90 cells incubated for 3 days by SRB assay; assay type: cell-based; settings: IMR-90, 72 h
Acinetobacter baumannii = assay: Antimicrobial activity against Acinetobacter baumannii by broth microdilution assay; assay type: functional
HT-29 = assay: Cytotoxicity against human HT-29 cells by CellTiter 96 Aqueous One solution cell proliferation assay; assay type: functional, cell-based
[2] = system: Mycolicibacterium smegmatis; assay: Antimicrobial activity against Mycobacterium smegmatis by broth microdilution assay; assay type: functional
Staphylococcus aureus = assay: Antimicrobial activity against Staphylococcus aureus by broth microdilution assay; assay type: functional
Escherichia coli = assay: Antimicrobial activity against Escherichia coli by broth microdilution assay; assay type: functional
Vero = assay: Cytotoxicity against african green monkey Vero cells by CellTiter 96 aqueous nonradioactive cell proliferation assay; assay type: cell-based; settings: Chlorocebus sabaeus
Homo sapiens = species on record: Homo sapiens; assay: Inhibition of 20S proteasome at 25 ug/ml
[3] = Homo sapiens, HT-29, read-out: IC50

Molecule | MIC (Candida albicans) | MIC [1] | IC50 (MCF7) | IC50 (NCI-H460) | IC50 (SF-268) | IC50 (IMR-90) | MIC (Acinetobacter baumannii) | IC50 (HT-29; [3]) | MIC [2] | MIC (Staphylococcus aureus) | MIC (Escherichia coli) | IC50 (Vero) | IC50 (HT-29; ht-29) | inhibition (Homo sapiens)
C[C@@H]1[C@H](O)[C@@H](C)/C=C/C=C/C=C/C=C/C=C/C=C/C=C/[C@H](O[C@@H]2O[C@H](C)[C@@H](O)[C@H](N)[C@@H]2O)C[C@@H]2O[C@](O)(C[C@@H](O)C[C@@H](O)[C@H](O)CC[C@@H](O)C[C@@H](O)CC(=O)O[C@H]1C)C[C@H](O)[C@H]2C(=O)O [AMPHOTERICIN B] | 0.12 µM (≈ 0.111 µg/mL) |  |  |  |  |  |  |  |  |  |  |  |  | 
CO[C@H]1/C=C/O[C@@]2(C)Oc3c(C)c(O)c4c(O)c(c(/C=N/N5CCN(C)CC5)c(O)c4c3C2=O)NC(=O)/C(C)=C\C=C\[C@H](C)[C@H](O)[C@@H](C)[C@@H](O)[C@@H](C)[C@H](OC(C)=O)[C@@H]1C [RIFAMPIN] |  | 0.24 µM (≈ 0.198 µg/mL) |  |  |  |  |  |  |  |  |  |  |  | 
[C-]#[N+][C@@H]1[C@H]2c3c[nH]c4cccc(c34)C(C)(C)[C@@H]2CC[C@]1(C)C=C [HAPALINDOLE H] |  |  | 16.3 µM | 8.5 µM | 10.6 µM | 31.9 µM |  |  |  |  |  |  |  | 
C[C@H]1c2cccc(O)c2C(=O)C2=C(O)[C@]3(O)C(=O)C(C(N)=O)=C(O)[C@@H](N(C)C)[C@@H]3[C@@H](O)[C@@H]21 [DOXYCYCLINE] |  |  |  |  |  |  | 0.35 µM (≈ 0.156 µg/mL) |  |  |  |  |  |  | 
[C-]#[N+][C@@H]1[C@H]2c3c[nH]c4cccc(c34)C(C)(C)[C@H]2CC[C@]1(C)C=C [HAPALINDOLE J] | 0.7 µM (≈ 0.213 µg/mL) | 4.3 µM (≈ 1.31 µg/mL) | 43.7 µM | 12 µM | 16.9 µM | 39.1 µM | > 100 µM | 28.6 µM | 39 µM (≈ 11.9 µg/mL) | 8.4 µM (≈ 2.56 µg/mL) | > 100 µM |  |  | 
[C-]#[N+][C@@H]1[C@H]2c3c[nH]c4cccc(c34)C(C)(C)[C@H]2C[C@@H](Cl)[C@]1(C)C=C [HAPALINDOLE A] | 1.2 µM (≈ 0.407 µg/mL) | < 0.6 µM | 30.7 µM | 17 µM | 16.3 µM | 39.1 µM | > 100 µM |  | 18.2 µM (≈ 6.17 µg/mL) | 3.9 µM (≈ 1.32 µg/mL) | 8 µM (≈ 2.71 µg/mL) | 25.6 µM |  | 
CC1(C)S[C@@H]2[C@H](NC(=O)[C@H](N)c3ccccc3)C(=O)N2[C@H]1C(=O)O [AMPICILLIN] |  |  |  |  |  |  |  |  |  | 1.54 µM (≈ 0.538 µg/mL) |  |  |  | 
CN[C@@H]1[C@H](O[C@H]2[C@H](O[C@H]3[C@H](O)[C@@H](O)[C@H](N=C(N)N)[C@@H](O)[C@@H]3N=C(N)N)O[C@@H](C)[C@]2(O)C=O)O[C@@H](CO)[C@H](O)[C@H]1O [STREPTOMYCIN] |  |  |  |  |  |  |  |  | 0.41 µM (≈ 0.238 µg/mL) |  |  |  |  | 
[C-]#[N+]C1=C2c3c[nH]c4cccc(c34)C(C)(C)[C@H]2CC[C@]1(C)C=C (relative stereo) | > 100 µM | > 100 µM |  |  |  |  | > 100 µM |  | > 100 µM | > 100 µM | > 100 µM | > 100 µM |  | 
[C-]#[N+][C@@H]1[C@@H]2c3c[nH]c4cccc(c34)C(C)(C)[C@H]2CC[C@]1(C)C=C [HAPALINDOLE U] |  |  | > 100 µM | > 100 µM | > 100 µM | > 100 µM |  | 52.6 µM |  |  |  |  |  | 
C=C[C@]1(C)CC2C(=O)c3c(NC=O)cccc3C(C)(C)[C@H]2C[C@H]1O (relative stereo) | > 100 µM | > 100 µM | > 100 µM | > 100 µM | > 100 µM | > 100 µM | > 100 µM |  | > 100 µM | > 100 µM | > 100 µM | > 100 µM | Not Active | 
[C-]#[N+]C1=C2c3c[nH]c4cccc(c34)C(C)(C)[C@H]2C[C@@H](Cl)[C@]1(C)C=C [HAPALINDOLE I] | > 100 µM | 2 µM (≈ 0.674 µg/mL) | > 100 µM | 68.5 µM | 93.1 µM | > 100 µM | > 100 µM |  | > 100 µM | > 100 µM | > 100 µM | > 100 µM | Not Active | 
[C-]#[N+][C@@H]1[C@H](c2c[nH]c3ccccc23)[C@@H](C(=C)C)CC[C@]1(C)C=C [HAPALINDOLE C] |  |  | > 100 µM | 53.7 µM | 88.6 µM | > 100 µM |  |  |  |  |  |  |  | inactive
[C-]#[N+][C@H]1C(=C)[C@@H](C=C)C[C@@H]2[C@@H]1c1c[nH]c3cccc(c13)C2(C)C (relative stereo) | 2.5 µM (≈ 0.756 µg/mL) | 2.5 µM (≈ 0.756 µg/mL) | 35.4 µM | 23 µM | 23.5 µM | 113 µM | > 100 µM | 24.8 µM | 78.8 µM (≈ 23.8 µg/mL) | 9.1 µM (≈ 2.75 µg/mL) | > 100 µM |  |  | 
[C-]#[N+][C@@H]1C2=C3C(=O)Nc4cccc(c43)C(C)(C)[C@H]2C[C@@H](Cl)[C@]1(C)C=C [ANHYDROHAPALOXINDOLE A] | 1.9 µM (≈ 0.67 µg/mL) | 16.2 µM (≈ 5.72 µg/mL) | 56.7 µM | 18.7 µM | 26 µM | 80.1 µM | > 100 µM |  | > 100 µM | 27.3 µM (≈ 9.63 µg/mL) | > 100 µM |  |  | 
CC[C@@]1(O)C(=O)OCc2c1cc1n(c2=O)Cc2cc3ccccc3nc2-1 [CAMPTOTHECIN] |  |  | 0.08 µM | 0.002 µM | 0.07 µM | 0.43 µM |  |  |  |  |  |  |  | 
[C-]#[N+][C@@H]1[C@H]2c3c([nH]c4ccccc34)C(C)(C)[C@H]2C[C@@H](Cl)[C@@]1(C)C=C [FISCHERINDOLE L] | 1.2 µM (≈ 0.407 µg/mL) | 22 µM (≈ 7.46 µg/mL) | 28.3 µM | 15.1 µM | 17.4 µM | 46.3 µM | > 100 µM |  | 63 µM (≈ 21.3 µg/mL) | 6.4 µM (≈ 2.17 µg/mL) | > 100 µM | < 9.2 µM |  | 
GENTAMICIN |  |  |  |  |  |  |  |  |  |  | 2.3 µM |  |  | 
CCCCCC#CC#C/C=C/CCCC[C@H]1C[C@@H](C)C(=O)N1 [FISCHERELLIN B] | > 100 µM | 23 µM (≈ 6.89 µg/mL) |  |  |  |  | > 100 µM |  | > 100 µM | > 100 µM | > 100 µM | > 100 µM |  | 
